Experimental findings from PMC10740432, “The GDP-Mannose Dehydrogenase of Pseudomonas aeruginosa: An Old and New Target to Fight against Antibiotics Resistance of Mucoid Strains” (Antibiotics, 2023) are described below.

For data set [1], the target named is T1, GDP-mannose dehydrogenase (GMD) (Pseudomonas aeruginosa, UniProt P11759).
T1 construct: gene algD; native full-length protein purified from mucoid P. aeruginosa; 48 kDa polypeptide; 59 kDa apparent on gel filtration, monomer/active dimer; no tag
The data set can be described thus: inhibition of NADH formation at […] nm. It is filed as biochemical. The note with it: read-out: Percentage of GMD Inhibition at the Final Concentration of.

Data set [2] concerns the target T1, GDP-mannose dehydrogenase (GMD). The data set can be described thus: NADH formation at […] nm, Dixon plot. It is filed as biochemical.
The subject of data set [3] is Nc1nc2c(ncn2[C@@H]2O[C@H](COP(=O)(O)OP(=O)(O)O[C@H]3O[C@H](CO)[C@@H](O)[C@H](O)[C@@H]3O)[C@@H](O)[C@H]2O)c(=O)[nH]1. Put plainly: purified protein. As to conditions: strong-affinity site of two (negative cooperativity), strains NK 125502 and A22 alg^+, 1 mM NAD+, 10 mM MgSO4, 0.2 M glycyl-glycine pH 8.5, 37 °C.
Data set [4] deals with NC(=O)c1ccc[n+]([C@@H]2O[C@H](COP(=O)(O)OP(=O)(O)OC[C@H]3O[C@@H](n4cnc5c(N)ncnc54)[C@H](O)[C@@H]3O)[C@@H](O)[C@H]2O)c1. Put plainly: purified protein. The note with it: co-substrate GDP-mannose, 10 mM MgSO4, 0.2 M glycyl-glycine pH 8.5, 37 °C, strain not stated, varied: cofactor.

T1 sequence (P11759 whole entry): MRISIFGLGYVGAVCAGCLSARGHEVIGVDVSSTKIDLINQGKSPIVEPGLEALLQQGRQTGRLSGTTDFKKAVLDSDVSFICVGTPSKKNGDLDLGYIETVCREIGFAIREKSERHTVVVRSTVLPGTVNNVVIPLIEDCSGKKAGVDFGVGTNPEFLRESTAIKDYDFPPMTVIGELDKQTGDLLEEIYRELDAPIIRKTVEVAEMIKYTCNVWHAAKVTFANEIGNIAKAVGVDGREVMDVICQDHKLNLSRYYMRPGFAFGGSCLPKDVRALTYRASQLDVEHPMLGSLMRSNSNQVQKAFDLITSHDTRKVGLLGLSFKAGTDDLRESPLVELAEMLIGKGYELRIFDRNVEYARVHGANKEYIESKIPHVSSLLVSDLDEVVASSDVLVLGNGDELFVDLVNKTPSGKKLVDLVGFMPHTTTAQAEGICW

Take `NC[C@H]1O[C@@H](n2cnc3c(=O)[nH]c(N)nc32)[C@H](O)[C@@H]1O` [5′AG, 5′-amino-5′-deoxy-guanosine]: in data set [1], the inhibition at 500 µM was 64 ± 3%. On the same count and under the same terms, the same measure for `Nc1nc2c(ncn2[C@@H]2O[C@H](CNCCCO)[C@@H](O)[C@H]2O)c(=O)[nH]1` [5′APG, 5′-(3-hydroxypropyl)-amino-5′-guanosine]: 72 ± 2%. Same read-out and setting: the same measure for `C#CC(OC(C)=O)[C@H]1O[C@H](OC(=O)NS(=O)(=O)OC[C@H]2O[C@@H](n3cnc4c(=O)[nH]c(NC(C)=O)nc43)[C@@H]3OC(C)(C)O[C@@H]32)[C@@H](OC(C)=O)[C@@H](OC(C)=O)[C@@H]1OC(C)=O` (stereo partly drawn) [AM5′ASG, alcynyl-6-tetra-O-acetyl-mannose-carbonyl-amino-sulfonyl-guanosine]: 90 ± 3%. In the case of `Nc1nc2c(ncn2[C@@H]2O[C@H](CO)[C@@H](O)[C@H]2O)c(=O)[nH]1` [guanosine], the Ki – broadly, a measure of affinity in units of concentration, obtained from inhibition or displacement – in data set [2] is about 40 µM. On to “GDP-mannose dehydrogenase (GMD) (Pseudomonas aeruginosa PAO1)”, for which the Km – broadly, the concentration of substrate that gives half-maximal velocity – in data set [3] worked out at 13 µM; in data set [4], 360 µM.
